We go through 10 molecules from patent US11040027B2, “Protein kinase inhibitors for promoting liver regeneration or reducing or preventing hepatocyte death” (HEPAREGENIX GMBH, priority 2017, dated 2021).

As usually defined, the IC50 is the point on the concentration scale where inhibition reaches its midpoint.

One experiment addresses BRaf (Homo sapiens, UniProt P15056). Briefly: KINOMEscan competition binding assay, selectivity BRaf versus MKK4. The note with it: Test conc. 0.1 μM; ratio of percent of control; N/E* per footnote. The method, then: The assay was performed by combining three components: DNA-tagged kinase; immobilized ligand; and a test compound. The ability of the test compound to compete with the immobilized ligand was measured via quantitative PCR of the DNA tag. The technology is described in detail in Fabian, M. A. et al. A small molecule-kinase interaction map for clinical kinase inhibitors. Nat. […] Nat.
The test compounds were provided as 10 mM stock solutions. The test solutions at indicated final concentrations were prepared at DiscoverX.

In the next experiment the target is T1, MKK4 active (Homo sapiens, UniProt P45985).
T1 construct: purchased ProQinase 0948-0000-1
T1 sequence (P45985 1-399): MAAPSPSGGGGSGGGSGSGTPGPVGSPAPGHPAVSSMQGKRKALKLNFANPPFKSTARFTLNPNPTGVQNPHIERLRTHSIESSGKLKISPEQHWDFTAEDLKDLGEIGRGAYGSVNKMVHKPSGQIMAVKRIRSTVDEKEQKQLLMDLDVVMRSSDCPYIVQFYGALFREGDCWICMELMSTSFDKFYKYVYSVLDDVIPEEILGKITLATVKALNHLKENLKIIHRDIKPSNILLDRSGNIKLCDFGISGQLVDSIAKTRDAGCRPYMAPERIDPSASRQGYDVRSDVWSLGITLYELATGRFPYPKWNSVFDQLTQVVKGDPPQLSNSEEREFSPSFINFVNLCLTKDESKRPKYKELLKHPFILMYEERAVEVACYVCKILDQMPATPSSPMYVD
Description: Radiometric protein kinase assay, MKK4 active. The note with it: substrate JNK1 KRKR, ATP 0.2 μM, read-out: MKK4 (potency derived from IC50-values). In kind it is biochemical. Here is the method:
(§1) A radiometric protein kinase assay was used for measuring the kinase activity of the respective protein kinases. All kinase assays were performed in 96-well polypropylene plates. After the reactions were stopped, the assay mixtures were transferred to 96-well MSFC filter-plates (Millipore). The reaction mix was passed through the filter membrane by aspiration, the membrane was washed 3 times with 150 mM H3PO4, once with ethanol, dried and liquid scintillation cocktail was added. Radioactivity was determined by counting of the samples in a Microbeta multiwell scintillation counter (Wallac).
(§2) b) Single Kinases • 20 μl standard assay buffer • 5 μl compound in 10% DMSO • 20 μl enzyme-substrate mix • 10 μl of substrate solution
(§3) The reaction cocktails were incubated at 30° C. for 30 minutes.

The next experiment deals with T2, MEKK2 (Homo sapiens, UniProt Q9Y2U5).
T2 construct: purchased ProQinase 0583-0000-1
T2 sequence (Q9Y2U5 1-619): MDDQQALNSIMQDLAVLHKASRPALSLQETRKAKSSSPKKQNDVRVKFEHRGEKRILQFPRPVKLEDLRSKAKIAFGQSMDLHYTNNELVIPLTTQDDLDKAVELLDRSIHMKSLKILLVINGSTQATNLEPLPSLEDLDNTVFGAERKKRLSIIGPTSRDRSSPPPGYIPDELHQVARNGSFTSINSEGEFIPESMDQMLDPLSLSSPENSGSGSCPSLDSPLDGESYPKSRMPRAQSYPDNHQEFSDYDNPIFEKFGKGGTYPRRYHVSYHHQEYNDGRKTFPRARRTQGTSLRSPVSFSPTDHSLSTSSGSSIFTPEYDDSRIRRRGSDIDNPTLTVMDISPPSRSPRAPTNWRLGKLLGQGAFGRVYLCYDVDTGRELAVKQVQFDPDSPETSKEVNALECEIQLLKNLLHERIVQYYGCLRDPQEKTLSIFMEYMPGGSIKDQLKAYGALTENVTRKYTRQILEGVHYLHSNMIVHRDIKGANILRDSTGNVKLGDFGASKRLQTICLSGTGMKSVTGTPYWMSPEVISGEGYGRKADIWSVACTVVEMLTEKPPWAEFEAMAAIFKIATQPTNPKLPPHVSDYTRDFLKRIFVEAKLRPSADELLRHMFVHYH
Description: Radiometric protein kinase assay, MEKK2. In kind it is biochemical. The note with it: substrate Casein, ATP 0.2 μM; read-out: MEKK2 (potency derived from IC50-values). Here is the method: as §1, §2, §3

The next experiment addresses T3, MKK4 (Homo sapiens, UniProt P45985).
T3 sequence (P45985 84-399): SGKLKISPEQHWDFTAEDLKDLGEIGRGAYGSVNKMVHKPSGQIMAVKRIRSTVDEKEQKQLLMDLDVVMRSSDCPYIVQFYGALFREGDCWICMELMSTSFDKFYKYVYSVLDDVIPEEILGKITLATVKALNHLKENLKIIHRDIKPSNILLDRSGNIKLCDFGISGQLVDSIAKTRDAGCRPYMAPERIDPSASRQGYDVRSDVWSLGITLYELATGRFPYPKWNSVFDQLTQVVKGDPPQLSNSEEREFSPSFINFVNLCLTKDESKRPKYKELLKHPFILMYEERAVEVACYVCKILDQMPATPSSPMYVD
Description: KINOMEscan competition binding assay, MKK4. The note with it: read-out: Potency MKK4 (derived from % of control values, PoC).

In a further experiment the target is JNK1 (Homo sapiens, UniProt P45983). Briefly: KINOMEscan competition binding assay, selectivity JNK1 versus MKK4. The note with it: ratio of percent of control.
Sequence of JNK1 (P45983 1-384 isoform P45983-2): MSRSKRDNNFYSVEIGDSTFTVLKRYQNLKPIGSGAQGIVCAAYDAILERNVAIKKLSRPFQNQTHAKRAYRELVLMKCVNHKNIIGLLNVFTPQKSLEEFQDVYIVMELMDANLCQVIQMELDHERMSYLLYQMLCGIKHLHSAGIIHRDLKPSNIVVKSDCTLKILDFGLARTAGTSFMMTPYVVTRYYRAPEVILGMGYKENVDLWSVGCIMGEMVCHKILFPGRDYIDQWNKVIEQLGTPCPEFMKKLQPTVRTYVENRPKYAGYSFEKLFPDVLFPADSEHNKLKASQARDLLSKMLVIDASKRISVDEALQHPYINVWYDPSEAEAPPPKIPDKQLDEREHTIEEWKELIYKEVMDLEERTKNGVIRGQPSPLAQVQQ
In the next experiment the target is T4, MKK7 (Homo sapiens, UniProt O14733).
T4 sequence (O14733 1-419): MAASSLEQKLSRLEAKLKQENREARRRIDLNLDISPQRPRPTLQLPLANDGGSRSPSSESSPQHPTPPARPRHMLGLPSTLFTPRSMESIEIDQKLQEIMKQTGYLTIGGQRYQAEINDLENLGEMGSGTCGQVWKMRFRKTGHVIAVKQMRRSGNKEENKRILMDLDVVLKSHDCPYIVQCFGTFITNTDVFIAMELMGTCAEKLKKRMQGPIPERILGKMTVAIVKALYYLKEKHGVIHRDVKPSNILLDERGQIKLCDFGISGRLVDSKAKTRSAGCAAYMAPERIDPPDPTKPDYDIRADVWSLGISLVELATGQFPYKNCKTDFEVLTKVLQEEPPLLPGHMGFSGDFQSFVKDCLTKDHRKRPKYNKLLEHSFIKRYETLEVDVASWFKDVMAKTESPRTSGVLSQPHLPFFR
Briefly: KINOMEscan competition binding assay, selectivity MKK7 versus MKK4. Particulars: Test conc. 0.1 μM; ratio of percent of control; N/E* per footnote.

The mark [1] stands for this setting: Test conc 0.1 μM, N/E* = PoC for JNK1 = 100.

Sequence of BRaf (P15056 whole entry): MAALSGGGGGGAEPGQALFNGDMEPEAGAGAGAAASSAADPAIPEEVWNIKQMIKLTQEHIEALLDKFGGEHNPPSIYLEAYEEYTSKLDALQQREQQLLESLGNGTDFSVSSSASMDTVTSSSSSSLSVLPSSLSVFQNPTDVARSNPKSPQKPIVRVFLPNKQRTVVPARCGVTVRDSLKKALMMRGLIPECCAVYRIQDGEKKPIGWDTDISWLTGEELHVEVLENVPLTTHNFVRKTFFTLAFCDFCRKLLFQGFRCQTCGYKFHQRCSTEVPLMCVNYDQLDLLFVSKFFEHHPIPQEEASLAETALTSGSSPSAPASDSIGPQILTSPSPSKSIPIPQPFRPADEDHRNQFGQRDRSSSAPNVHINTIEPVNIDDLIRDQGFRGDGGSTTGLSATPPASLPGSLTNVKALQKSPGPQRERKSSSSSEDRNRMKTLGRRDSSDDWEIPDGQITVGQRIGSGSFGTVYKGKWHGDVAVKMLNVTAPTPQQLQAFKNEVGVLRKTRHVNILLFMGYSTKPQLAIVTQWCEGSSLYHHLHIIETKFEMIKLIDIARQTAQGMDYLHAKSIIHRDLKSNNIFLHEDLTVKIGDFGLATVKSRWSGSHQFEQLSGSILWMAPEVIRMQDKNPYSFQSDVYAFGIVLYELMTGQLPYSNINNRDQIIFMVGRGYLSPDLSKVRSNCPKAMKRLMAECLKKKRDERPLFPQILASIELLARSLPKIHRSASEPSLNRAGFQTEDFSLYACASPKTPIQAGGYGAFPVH
Description for MKK7: For investigation of the affinity to MKK4, MKK7 and JNK1, the kinases were produced in HEK-293 cells and subsequently tagged with DNA for qPCR detection. […] The liganded beads were blocked with excess biotin and washed with blocking buffer (SEABLOCK™ (Pierce), 1% BSA, 0.05% TWEEN®20, 1 mM DTT) to remove unbound ligand and to reduce nonspecific binding. […] All reactions were performed in polystyrene 96-well plates in a final volume of 0.135 mL. […] The kinase concentration in the eluates was measured by qPCR.

Turning to `CCCS(=O)(=O)Nc1ccc(F)c(C(=O)c2c[nH]c3ncc(-c4ccc(C(C)C)cc4)cc23)c1F` [Example 7, N-(2,4-Difluoro-3-(5-(4-isopropylphenyl)-1H-pyrrolo[2,3-b]pyridine-3-carbonyl)phenyl)propane-1-sulfonamide], the “Selectivity BRaf/MKK4” value on BRaf is recorded as 0.9. The results for the IC50 at MKK4 active and at MEKK2 were 500 to 1000 nM and more than 10000 nM, respectively. Besides, the remaining binding at 0.1 µM at MKK4 was more than 30%. In addition, the “Selectivity JNK1/MKK4” value at JNK1 (Test conc 10 μM) is reported as more than 100. In addition, at MKK7, the “Selectivity MKK7/MKK4” value is 3.0.

Take `CCCS(=O)(=O)Nc1ccc(F)c(C(=O)c2c[nH]c3ncc(-c4ccc5c(c4)OCO5)cc23)c1F` [Example 10, N-(3-(5-(Benzo[d][1,3]dioxol-5-yl)-1H-pyrrolo[2,3-b]pyridine-3-carbonyl)-2,4-difluorophenyl)propane-1-sulfonamide]: the “Selectivity BRaf/MKK4” value at BRaf is listed as 4.2. Besides, the IC50 at MKK4 active and at MEKK2 was more than 10000 nM throughout. For the same molecule, the remaining binding at 0.1 µM on MKK4 was less than 10%. Besides, on JNK1 (Test conc 10 μM), the “Selectivity JNK1/MKK4” value is more than 100. Also, the “Selectivity MKK7/MKK4” value at MKK7 was 270.

As to `CCCS(=O)(=O)Nc1ccc(F)c(C(=O)c2c[nH]c3ncc(-c4ccc(F)cc4C)cc23)c1F` [Example 12, N-(2,4-Difluoro-3-(5-(4-fluoro-2-methylphenyl)-1H-pyrrolo[2,3-b]pyridine-3-carbonyl)phenyl)propane-1-sulfonamide], the “Selectivity BRaf/MKK4” value at BRaf is given as 7.8. Also, the IC50 is 500 to 1000 nM on MKK4 active and more than 10000 nM at MEKK2. Further, at MKK4, the remaining binding at 0.1 µM was in the range of 10 to 30%. Also, the “Selectivity JNK1/MKK4” value on JNK1 (Test conc 10 μM) is on record as more than 100. Besides, at MKK7, the “Selectivity MKK7/MKK4” value is 10.

As for `CCCS(=O)(=O)Nc1ccc(F)c(C(=O)c2c[nH]c3ncc(-c4ccccc4Cl)cc23)c1F` [Example 13, N-(3-(5-(2-Chlorophenyl)-1H-pyrrolo[2,3-b]pyridine-3-carbonyl)-2,4-difluorophenyl)propane-1-sulfonamide], the “Selectivity BRaf/MKK4” value at BRaf is listed as 10.5. The 50% inhibitory concentration (IC50) was less than 500 nM on MKK4 active and 1000 to 10000 nM on MEKK2. Moreover, at MKK4, the remaining binding at 0.1 µM fell in the range of 10 to 30%. Besides, the “Selectivity JNK1/MKK4” value on JNK1 (Test conc 10 μM) is more than 100. Also, at MKK7, the “Selectivity MKK7/MKK4” value amounted to 10.

On to `CS(=O)(=O)Nc1cccc(C(=O)c2c[nH]c3ncc(-c4ccc5c(c4)OCCO5)cc23)c1F` [Example 36, N-(3-(5-(2,3-Dihydrobenzo[b][1,4]dioxin-6-yl)-1H-pyrrolo[2,3-b]pyridine-3-carbonyl)-2-fluorophenyl)methanesulfonamide], for which the “Selectivity BRaf/MKK4” value at BRaf amounted to 18.8. The IC50 on MKK4 active and at MEKK2 was more than 10000 nM throughout. Besides, the remaining binding at 0.1 µM on MKK4 is less than 10%. Also, on JNK1 (setting [1]), the “Selectivity JNK1/MKK4” value is listed as “N/E* (PoC for JNK1 = 100)”. For the same molecule, the “Selectivity MKK7/MKK4” value on MKK7 was found to be 19.6.

For `Cc1cc(F)ccc1-c1cnc2[nH]cc(C(=O)c3cccc(NS(C)(=O)=O)c3F)c2c1` [Example 37, N-(2-Fluoro-3-(5-(4-fluoro-2-methylphenyl)-1H-pyrrolo[2,3-b]pyridine-3-carbonyl)phenyl)methanesulfonamide], on BRaf, the “Selectivity BRaf/MKK4” value stood at 13.2. For the same molecule, the IC50 is 500 to 1000 nM at MKK4 active and more than 10000 nM at MEKK2. Further, the remaining binding at 0.1 µM on MKK4 was less than 10%. The “Selectivity JNK1/MKK4” value on JNK1 (setting [1]) is given as “N/E* (PoC for JNK1 = 100)”. Moreover, the “Selectivity MKK7/MKK4” value on MKK7 stood at 14.1.

`CS(=O)(=O)Nc1cccc(C(=O)c2c[nH]c3ncc(-c4ccccc4Cl)cc23)c1F` [Example 38, N-(3-(5-(2-Chlorophenyl)-1H-pyrrolo[2,3-b]pyridine-3-carbonyl)-2-fluorophenyl) methanesulfonamide]: the “Selectivity BRaf/MKK4” value on BRaf worked out at 5.3. The figures for the IC50 at MKK4 active and at MEKK2 were less than 500 nM and 1000 to 10000 nM, respectively. In addition, the remaining binding at 0.1 µM on MKK4 is 10 to 30%. Also, the “Selectivity JNK1/MKK4” value on JNK1 (setting [1]) is recorded as “N/E* (PoC for JNK1 = 100)”. Moreover, at MKK7, the “Selectivity MKK7/MKK4” value is recorded as 5.3.

Regarding `CCCS(=O)(=O)Nc1ccc(F)c(C(=O)c2c[nH]c3ncc(-c4ccc(F)cc4Cl)cc23)c1F` [Example 40, N-(3-(5-(2-Chloro-4-fluorophenyl)-1H-pyrrolo[2,3-b]pyridine-3-carbonyl)-2,4-difluorophenyl)propane-1-sulfonamide], on BRaf, the “Selectivity BRaf/MKK4” value was 4.7. Further, the half-maximal inhibitory concentration (IC50) on MKK4 active was less than 500 nM; on MEKK2, 1000 to 10000 nM. For the same molecule, the remaining binding at 0.1 µM on MKK4 is 10 to 30%. For the same molecule, the “Selectivity JNK1/MKK4” value on JNK1 (setting [1]) was “N/E* (PoC for JNK1 = 100)”. Further, the “Selectivity MKK7/MKK4” value on MKK7 is listed as 5.6.

For the molecule `CCCS(=O)(=O)Nc1ccc(F)c(C(=O)c2c[nH]c3ncc(-c4cc5c(cc4Cl)OCO5)cc23)c1F` [Example 43, N-(3-(5-(6-Chlorobenzo[d][1,3]dioxol-5-yl)-1H-pyrrolo[2,3-b]pyridine-3-carbonyl)-2,4-difluorophenyl)propane-1-sulfonamide], on BRaf, the “Selectivity BRaf/MKK4” value is reported as 7.7. In addition, the values for the IC50 on MKK4 active and on MEKK2 were less than 500 nM and 1000 to 10000 nM, respectively. The “Selectivity JNK1/MKK4” value at JNK1 (setting [1]) is listed as “N/E* (PoC for JNK1 = 100)”. Moreover, the “Selectivity MKK7/MKK4” value on MKK7 is recorded as 9.1.

Turning to `CCCS(=O)(=O)Nc1ccc(F)c(C(=O)c2c[nH]c3ncc(-c4cc5c(cc4Cl)OCCO5)cc23)c1F` [Example 44, N-(3-(5-(7-Chloro-2,3-dihydrobenzo[b][1,4]dioxin-6-yl)-1H-pyrrolo[2,3-b]pyridine-3-carbonyl)-2,4-difluorophenyl)propane-1-sulfonamide], on BRaf, the “Selectivity BRaf/MKK4” value is on record as 14. Further, the half-inhibitory concentration (IC50) at MKK4 active was less than 500 nM; on MEKK2, 1000 to 10000 nM. Moreover, the remaining binding at 0.1 µM at MKK4 is less than 10%. Also, on JNK1 (setting [1]), the “Selectivity JNK1/MKK4” value is “N/E* (PoC for JNK1 = 100)”. Also, the “Selectivity MKK7/MKK4” value at MKK7 is given as 18.
